Structures are written as SMILES.

The source of these data is patent US11197856B2, “Bicyclic compounds and methods for their use in treating autism” (priority 2013, dated 2021).

The test system of one assay is ATF3. The assay is described as follows: PBBI in rats: ATF3 Western blotting. Format: in vivo. To be noted: 24 hrs. after PBBI. An excerpt:
(§1) The unilateral frontal PBBI model, which mimics the ballistic dynamics of a bullet or fragment wound to the head (Williams, 2003; Williams, 2006), was induced by stereotactic insertion of a custom probe through the right frontal cortex. A temporary cavity was formed by the rapid inflation/deflation (i.e. <40 msec) of an elastic balloon attached to the end of the probe. The PBBI apparatus consisted of a computer-controlled hydraulic pressure generator (Mitre Corp McLean, Va.), a PBBI probe and a stereotaxic frame equipped with a custom-designed probe holder as previously described (Lu, 2009; Williams, 2003). The injury severity was determined by the size of the balloon under control of the computerized hydraulic pressure. The balloon diameter calibrated to 0.63 cm expansion represented 10% of the total rat brain volume thus expressing a 10% PBBI. All surgeries were done under anaesthesia. Groups tested: Sham+vehicle, PBBI+vehicle, PBBI+cG-2-AllylP (30 mg/kg by oral gavage, 30 min post-injury, and again once daily until endpoint). AU procedures were approved by the Institutional Animal Care and Use Committee of WRAIR. Animals were housed in a facility accredited by the AAALAC. […]
(§2) Samples were analysed at 24 hr and 3 and 7 days post-injury for all groups (sham+vehicle, PBBI+vehicle, PBBI+cG-2-AllylP). […]

Assay [1] relates to neurons in the CA3 region of the hippocampus. The assay is described as follows: Neuron soma size in the hippocampus. Format: in vivo, mice. How it is done: We also measure the effect of cG-2-AllylP treatment on neuron soma size in the hippocampus. Mice are treated with cG-2-AllylP as described above for locomotor activity.
In the next assay the test system is MeCP2 knockout mice. Put plainly: Nocturnal activity measurements. Format: in vivo. The conditions noted are these: MeCP2 knockout mice after 6 weeks; nocturnal infrared beam crossing. Here is the method: Spontaneous motor activity is measured by using an infrared beam-activated movement-monitoring chamber (Opto-Varimax-MiniA; Columbus Instruments, Columbus, Ohio). For each experiment, a mouse is placed in the chamber at least 3 h before recordings started. Movement is monitored during the normal 12-h dark cycle (7 p.m. to 7 a.m.). One dark cycle per animal per time point is collected.
MeCP2−/y mice develop Rett-like symptoms beginning at 4-6 weeks of age when they progressively become lethargic, develop gait ataxia and […] (Chen et al., 2001). Baseline locomotor activity is also recorded in mice after 6 weeks by counting nocturnal infrared beam crossing events within a caged area.

Assay [2] relates to animals with scopolamine-induced memory impairment. Put plainly: Morris Water Maze (MWM) test with scopolamine-induced memory impairment. The class given is in vivo, Wistar rats. To be noted: 30 mg/kg; daily; oral. An excerpt:
The first part of the study involved acute testing of cG-2-AllylP in the Morris Water Maze Memory (MWM) model. The MWM test is one of the most frequently used tests for assessing spatial memory in rats and is well recognized to accurately predict effects of disease and treatment on spatial memory generally. Therefore, the MWM test reflects effects of disease and treatment in human subjects. The standard procedure for MWM was followed. We used a circular swimming pool (80 cm depth×150 cm diameter) filled with opaque water, with the temperature maintained at 20° C. […] On days 1-4 of the experiment rats underwent memory acquisition trials with 6 trials (60 seconds each) in each day of testing (habituation phase). Latency to reach the platform was recorded and the daily reduction of average latency was used to measure the capability to learn where the hidden platform was. […] Experimental groups are detailed in the Table 4 below. On […], the probe MWM test was performed with the platform removed. There were 6 trials, each of maximum duration of 60s, at least 3 min rest between trials). […] Data was collected and analysed using Any-maze (v4.2) software. The data generated from behavioural tests was analysed using one-way ANOVA for determining the difference between the aged-groups. […]

The test system of a further assay is ERK1/2. The assay is described as follows: Phosphorylated ERK by Western blot. To be noted: full brain lysates; fmr1-knockout animals vs vehicle. Format: in vivo, mice. Here is the method:
Phosphorylation levels of ERK1/2 and Akt of full brain lysates were evaluated using Western blots. The mice were sacrificed and the brains removed 12 days after the last injection, and immediately after the last behavioral test. Other studies measured pERK and pAkt in blood lymphocytes. The results of Western analysis were normalized to the amount of GAPDH protein seen in each blot.
(Immunoblotting shows a protein as a band on a membrane.)

For a further assay, the system named is synaptophysin (SYN). Put plainly: PBBI in rats: synaptophysin (SYN) immunohistochemistry in hippocampus. The conditions noted are these: 30 mg/kg oral once daily. The class given is in vivo, Sprague-Dawley rats. How it is done: The methods for producing PBBI in this Example is the same as described above for Example 26. Adult Sprague-Dawley rats were randomly assigned into three groups: sham (craniotomy only), PBBI+vehicle (i.e. H2O), and PBBI+cG-2-AllylP. cG-2-AllylP (or vehicle) was administered via oral gavage at 30 mg/kg at 30 min post-injury and continued once daily thereafter for 7, 14 or 28 days. At each treatment endpoint, rats were perfused and brains were processed for histological analysis (n=5-6/group/time-point). For detection of axonal sprouting, immunohistochemical detection of growth-associated protein-43 (GAP-43) was employed. Synaptogenesis was determined by immunohistochemistry for synaptophysin (SYN). For histological quantification, the integrated density in the hippocampal region was determined using NIH ImageJ software.

The test system of another assay is BCL2. Put plainly: PBBI in rats: BCL2 Western blotting. The conditions noted are these: 24 hr, 3 and 7 days after PBBI. The class given is in vivo.
Text: as §1, §2

Assay [3] has as its system fmr1-knockout hippocampal neurons. The assay is described as follows: Dendritic spine density in hippocampal cell cultures. Format: cell-based, mice. How it is done: Hippocampal cell cultures were prepared from wild type and fmr1-knockout fetal mice (14-16 days of gestation). Briefly, mice were kill by cervical dislocation under chloroform anesthesia, and dissociated hippocampal cells were plated in 13 mm multiwell vessels (Falcon Primaria). A plating medium of MEM-Eagle's salts (supplied glutamine free) supplemented with 10% fetal bovine serum was used. Cultures were kept at 37° C. in a humidified 3% CO2 atmosphere. After 3d in vitro, green fluorescent protein (GFP) was added to monitor dendritic spine morphogenesis during time-course of culture (Ethell and Yamaguchi, 1999; Ethell et al., 2001, Henkemeyer et al., 2003). The dendritic spines usually formed between 7 and 14 days in vitro (DVI). By 14 DIV most dendritic protrusions were spines. The mean (±SD) spine density was measured as number of spines per micrometer and experiments were run in triplicate.

As to `C=CC[C@]12CCCN1C(=O)CNC2=O` [cG-2-AllylP, (8aS)-Allyl-hexahydropyrrolo[1,2-a]pyrazine-1,4-dione], the ATF3 expression entry with ATF3 was “decreased ATF3 at 24 hrs. after PBBI”. In assay [1] (KO animals), the average soma size result is recorded as “increases average soma size in KO animals”. The soma size result in assay [1] (wild type animals) is given as “little or no effect on soma size in wild type animals”. Besides, in the assay on MeCP2 knockout mice, the locomotor activity levels entry is “elevates these levels”. The “cognitive impairment induced by scopolamine (MWM)” value in assay [2] was “significantly reversed the cognitive impairment induced by scopolamine”. Moreover, the ERK phosphorylation result with ERK1/2 is given as “significantly reduced ERK phosphorylation”. Moreover, the “injury-induced reduction in SYN expression” value with synaptophysin (SYN) (7d or 14d post-PBBI) is “no effect on injury-induced reductions”. The “PBBI-induced reduction in SYN expression” value with synaptophysin (SYN) (28 days post-injury) is “attenuated PBBI-induced reductions”. The BCL2 levels result in the assay on BCL2 is reported as “did not significantly alter”. The “spine density (mean±SD)” value in assay [3] (0.5 nM, n=3) is recorded as 0.36±0.02 number of spines per micromete; in assay [3] (5 nM), 0.25±0.03 number of spines per micromete; in assay [3] (50 nM), 0.27±0.10 number of spines per micromete.
